This passage reports IC50 results from patent publication US20120101093A1, “SUBSTITUTED IMIDAZO[1,2-A]PYRIDINE DERIVATIVES, PHARMACEUTICAL COMPOSITIONS, AND METHODS OF USE AS BETA-SECRETASE INHIBITORS” (HIGH POINT PHARMACEUTICALS, LLC, priority 2009, published 2012).

In general, IC50 refers to the midpoint of a concentration-inhibition curve.

The assay concerns the target T1, BACE-1 enzyme (Homo sapiens, UniProt P56817).
T1 construct: purchased R & D Systems 931AS
As to the kind of experiment: BACE Fluorescence Resonance Energy Transfer (FRET) Assay. It counts as biochemical. The conditions noted are these: pH 4-4.5, 30 min pre-incubation, about 1.5 hours reaction. The method in brief:
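Fluorescence (ex 540, em 585 nm) after ~1.5 h room-temperature cleavage of a quenched rhodamine peptide tracks BACE-1 activity. Enzyme and compound first sit 30 min in pH 4-4.5 acetate buffer with CHAPS, Triton X-100, EDTA, 7.5% DMSO. Values given as IC50 or % inhibition.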

T1 sequence (P56817 46-457 limits assumed): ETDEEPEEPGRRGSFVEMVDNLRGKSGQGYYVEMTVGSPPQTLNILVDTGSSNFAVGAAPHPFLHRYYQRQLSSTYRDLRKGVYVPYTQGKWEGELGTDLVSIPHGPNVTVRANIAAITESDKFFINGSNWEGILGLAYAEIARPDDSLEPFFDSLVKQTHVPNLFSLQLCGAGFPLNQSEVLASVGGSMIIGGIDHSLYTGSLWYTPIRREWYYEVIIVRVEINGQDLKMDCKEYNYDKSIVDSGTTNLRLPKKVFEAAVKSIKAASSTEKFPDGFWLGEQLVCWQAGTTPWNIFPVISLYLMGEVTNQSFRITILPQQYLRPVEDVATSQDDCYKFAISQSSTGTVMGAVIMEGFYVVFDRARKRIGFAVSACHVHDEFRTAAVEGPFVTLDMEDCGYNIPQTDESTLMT

`O=C(Nc1nc2cc(-c3cc(F)cc(Cl)c3)ccc2[nH]1)c1cn2cc(F)cc(OCCN3CCCCC3)c2n1` [Example 147, 6-Fluoro-8-(2-piperidin-1-yl-ethoxy)-imidazo[1,2-a]pyridine-2-carboxylic acid [5-(3-chloro-5-fluoro-phenyl)-1H-benzoimidazol-2-yl]-amide] came in with an IC50 of 0.41 µM. In other words, the sub-micromolar range.
With `CN1CCN(CCOc2cc(F)cn3cc(C(=O)Nc4nc5cc(-c6cc(F)cc(Cl)c6)ccc5[nH]4)nc23)CC1` [Example 148, 6-Fluoro-8-[2-(4-methyl-piperazin-1-yl)-ethoxy]-imidazo[1,2-a]pyridin-2-carboxylic acid [5-(3-chloro-5-fluoro-phenyl)-1H-benzoimidazol-2-yl]-amide], the IC50 was determined as 0.39 µM.
With `Cc1cc(OCCN2CCCCC2)c2nc(C(=O)Nc3nc4cc(-c5cc(F)cc(Cl)c5)ccc4[nH]3)cn2c1` [Example 149, 6-Methyl-8-(2-piperidin-1-yl-ethoxy)-imidazo[1,2-a]pyridine-2-carboxylic acid [5-(3-chloro-5-fluoro-phenyl)-1H-benzoimidazol-2-yl]-amide] the figure was 0.57 µM; with `Cc1cc(OCCN2CCN(C)CC2)c2nc(C(=O)Nc3nc4cc(-c5cc(F)cc(Cl)c5)ccc4[nH]3)cn2c1` [Example 150, 6-Methyl-8-[2-(4-methyl-piperazin-1-yl)-ethoxy]-imidazo[1,2-a]pyridine-2-carboxylic acid [5-(3-chloro-5-fluoro-phenyl)-1H-benzoimidazol-2-yl]-amide], 0.46 µM.
Compound `COc1cccn2cc(C(=O)Nc3nc4cc(-c5cc(F)cc(Cl)c5)ccc4[nH]3)nc12` [Example 151, 8-Methoxy-imidazo[1,2-a]pyridine-2-carboxylic acid [5-(3-chloro-5-fluoro-phenyl)-1H-benzoimidazol-2-yl]-amide] showed an IC50 of 0.31 µM.
`O=C(Nc1nc2cc(-c3cc(F)cc(Cl)c3)ccc2[nH]1)c1cn2cc(F)cc(N3CC[C@H](O)C3)c2n1` [Example 152, 6-Fluoro-8-((S)-3-hydroxy-pyrrolidin-1-yl)-imidazo[1,2-a]pyridine-2-carboxylic acid [5-(3-chloro-5-fluoro-phenyl)-1H-benzoimidazol-2-yl]-amide]: 1.53 µM corresponded to half-maximal inhibition (IC50).
To `O=C(Nc1nc2cc(-c3cc(F)cc(Cl)c3)ccc2[nH]1)c1cn2cc(F)cc(N3CC[C@@H](O)C3)c2n1` [Example 153, 6-Fluoro-8-((R)-3-hydroxy-pyrrolidin-1-yl)-imidazo[1,2-a]pyridine-2-carboxylic acid [5-(3-chloro-5-fluoro-phenyl)-1H-benzoimidazol-2-yl]-amide] belongs 1.83 µM; to `O=C(Nc1nc2cc(-c3cc(F)cc(Cl)c3)ccc2[nH]1)c1cn2cc(F)cc(N3CCC(O)CC3)c2n1` [Example 154, 6-Fluoro-8-(4-hydroxy-piperidin-1-yl)-imidazo[1,2-a]pyridine-2-carboxylic acid [5-(3-chloro-5-fluoro-phenyl)-1H-benzoimidazol-2-yl]-amide], 1.33 µM.
For `O=C(Nc1nc2cc(-c3cc(F)cc(Cl)c3)ccc2[nH]1)c1cn2c(N3CC[C@H](O)C3)cccc2n1` [Example 155, 5-((S)-3-Hydroxy-pyrrolidin-1-yl)-imidazo[1,2-a]pyridine-2-carboxylic acid [5-(3-chloro-5-fluoro-phenyl)-1H-benzoimidazol-2-yl]-amide], the midpoint of inhibition, the IC50, lay at 0.25 µM.
`CO[C@@H]1CCN(c2cccc3nc(C(=O)Nc4nc5cc(-c6cc(F)cc(Cl)c6)ccc5[nH]4)cn23)C1` [Example 156, 5-((R)-3-Methoxy-pyrrolidin-1-yl)-imidazo[1,2-a]pyridine-2-carboxylic acid [5-(3-chloro-5-fluoro-phenyl)-1H-benzoimidazol-2-yl]-amide] gave an IC50 of 0.29 µM.
For `CO[C@H]1CCN(c2cccc3nc(C(=O)Nc4nc5cc(-c6cc(F)cc(Cl)c6)ccc5[nH]4)cn23)C1` [Example 157, 5-((S)-3-Methoxy-pyrrolidin-1-yl)-imidazo[1,2-a]pyridine-2-carboxylic acid [5-(3-chloro-5-fluoro-phenyl)-1H-benzoimidazol-2-yl]-amide], the IC50 came to 0.32 µM. The IC50 values of the last two compounds are within 1.5-fold of each other.
The compound `O=C(Nc1nc2cc(-c3cc(F)cc(Cl)c3)ccc2[nH]1)c1cn2c(N3CCC(O)CC3)cccc2n1` [Example 158, 5-(4-Hydroxy-piperidin-1-yl)-imidazo[1,2-a]pyridine-2-carboxylic acid [5-(3-chloro-5-fluoro-phenyl)-1H-benzoimidazol-2-yl]-amide] gave an IC50 of 0.1 µM. Against the preceding compound, the IC50 is about 3.2-fold lower.
In the case of `CO[C@H]1CCN(c2cc(F)cn3cc(C(=O)Nc4nc5cc(-c6cc(F)cc(Cl)c6)ccc5[nH]4)nc23)C1` [Example 159, 6-Fluoro-8-((S)-3-methoxy-pyrrolidin-1-yl)-imidazo[1,2-a]pyridine-2-carboxylic acid [5-(3-chloro-5-fluoro-phenyl)-1H-benzoimidazol-2-yl]-amide], the IC50 came out at 0.34 µM.
With `CO[C@@H]1CCN(c2cc(F)cn3cc(C(=O)Nc4nc5cc(-c6cc(F)cc(Cl)c6)ccc5[nH]4)nc23)C1` [Example 160, 6-Fluoro-8-((R)-3-methoxy-pyrrolidin-1-yl)-imidazo[1,2-a]pyridine-2-carboxylic acid [5-(3-chloro-5-fluoro-phenyl)-1H-benzoimidazol-2-yl]-amide] the figure was 0.75 µM.
With `CC(C)CNCc1cccc2nc(C(=O)Nc3nc4cc(-c5cccc(C(F)(F)F)c5)ccc4[nH]3)cn12` [Example 164, 5-(Isobutylamino-methyl)-imidazo[1,2-a]pyridine-2-carboxylic acid [5-(3-trifluoromethyl-phenyl)-1H-benzoimidazol-2-yl]-amide] the figure was 0.3 µM; with `O=C(Nc1nc2cc(-c3cccc(C(F)(F)F)c3)ccc2[nH]1)c1cn2c(CN3CCCCC3)cccc2n1` [Example 166, 5-Piperidin-1-ylmethyl-imidazo[1,2-a]pyridine-2-carboxylic acid [5-(3-trifluoromethyl-phenyl)-1H-benzoimidazol-2-yl]-amide], 0.79 µM; with `CCN(CC)Cc1cccc2nc(C(=O)Nc3nc4cc(-c5cccc(C(F)(F)F)c5)ccc4[nH]3)cn12` [Example 168, 5-Diethylaminomethyl-imidazo[1,2-a]pyridine-2-carboxylic acid [5-(3-trifluoromethyl-phenyl)-1H-benzoimidazol-2-yl]-amide], 0.65 µM.
To `O=C(Nc1nc2cc(-c3cccc(C(F)(F)F)c3)ccc2[nH]1)c1cn2c(CNCc3ccccc3)cccc2n1` [Example 173, 5-(Benzylamino-methyl)-imidazo[1,2-a]pyridine-2-carboxylic acid [5-(3-trifluoromethyl-phenyl)-1H-benzoimidazol-2-yl]-amide] belongs 0.57 µM.
For the compound `O=C(Nc1nc2cc(-c3cccc(C(F)(F)F)c3)ccc2[nH]1)c1cn2c(CN3CCCC3)cccc2n1` [Example 175, 5-Pyrrolidin-1-ylmethyl-imidazo[1,2-a]pyridine-2-carboxylic acid [5-(3-trifluoromethyl-phenyl)-1H-benzoimidazol-2-yl]-amide], the IC50 was 0.49 µM.
To `CC(C)(C)NCc1ccc2nc(C(=O)Nc3nc4cc(-c5cccc(C(F)(F)F)c5)ccc4[nH]3)cn2c1` [Example 178, 6-(Tert-Butylamino-methyl)-imidazo[1,2-a]pyridine-2-carboxylic acid [5-(3-trifluoromethyl-phenyl)-1H-benzoimidazol-2-yl]-amide] belongs 0.43 µM; to `O=C(Nc1nc2cc(-c3cccc(C(F)(F)F)c3)ccc2[nH]1)c1cn2cc(CNC3CCCC3)ccc2n1` [Example 180, 6-Cyclopentylaminomethyl-imidazo[1,2-a]pyridine-2-carboxylic acid [5-(3-trifluoromethyl-phenyl)-1H-benzoimidazol-2-yl]-amide], 0.51 µM.
The compound `CN(C)Cc1ccc2nc(C(=O)Nc3nc4cc(-c5cccc(C(F)(F)F)c5)ccc4[nH]3)cn2c1` [Example 181, 6-Dimethylaminomethyl-imidazo[1,2-a]pyridine-2-carboxylic acid [5-(3-trifluoromethyl-phenyl)-1H-benzoimidazol-2-yl]-amide] registered an IC50 of 0.8 µM. This IC50 is about 1.6-fold higher than that of the compound before.
In turn, `CN1CCN(Cc2ccc3nc(C(=O)Nc4nc5cc(-c6cccc(C(F)(F)F)c6)ccc5[nH]4)cn3c2)CC1` [Example 183, 6-(4-Methyl-piperazin-1-ylmethyl)-imidazo[1,2-a]pyridine-2-carboxylic acid [5-(3-trifluoromethyl-phenyl)-1H-benzoimidazol-2-yl]-amide] returned an IC50 of 0.56 µM.
With `O=C(Nc1nc2cc(-c3cccc(C(F)(F)F)c3)ccc2[nH]1)c1cn2cc(CNCc3ccccc3)ccc2n1` [Example 186, 6-(Benzylamino-methyl)-imidazo[1,2-a]pyridine-2-carboxylic acid [5-(3-trifluoromethyl-phenyl)-1H-benzoimidazol-2-yl]-amide] the figure was 0.43 µM; with `CCNCc1ccc2nc(C(=O)Nc3nc4cc(-c5cccc(C(F)(F)F)c5)ccc4[nH]3)cn2c1` [Example 187, 6-Ethylaminomethyl-imidazo[1,2-a]pyridine-2-carboxylic acid [5-(3-trifluoromethyl-phenyl)-1H-benzoimidazol-2-yl]-amide], 0.51 µM.
To `CCN(C)Cc1cccc2nc(C(=O)Nc3nc4cc(-c5cccc(C(F)(F)F)c5)ccc4[nH]3)cn12` [Example 189, 5-[(Ethyl-methyl-amino)-methyl]-imidazo[1,2-a]pyridine-2-carboxylic acid [5-(3-trifluoromethyl-phenyl)-1H-benzoimidazol-2-yl]-amide] belongs 0.95 µM; to `CN(Cc1ccccc1)Cc1cccc2nc(C(=O)Nc3nc4cc(-c5cccc(C(F)(F)F)c5)ccc4[nH]3)cn12` [Example 190, 5-[(Benzyl-methyl-amino)-methyl]-imidazo[1,2-a]pyridine-2-carboxylic acid [5-(3-trifluoromethyl-phenyl)-1H-benzoimidazol-2-yl]-amide], 1.28 µM.
